Results reported in patent US5731345A, “Seco-D steroids active on the cardiovascular system and pharmaceutical compositions containing same” (Sigma-Tau Industrie Farmaceutiche Riunite S.p.A, priority 1995, dated 1998).
Like-named read-outs stand apart in the source and are kept apart here.

Key:
[1] = system: spontaneous hypertensive rats (MHS); experiment: prevention of development of hypertension in pre-hypertensive rats, indirect tail-cuff plethysmography (SBP and HR); type: in vivo, rat; settings: 5 week treatment, 20 mg/kg/os daily in 0.5% w/v Methocel; for SBP: controls 172+/-5.0; for HR: controls 380+/-6.3
Experimental: Systolic blood pressure (SBP) and heart rate (HR) were measured by an indirect tail-cuff plethysmographic method in […] pre-hypertensive male rats, (MHS or SHR), i.e. before hypertension onset so as to register the basal value of SBP. The rats were then subdivided in groups of 7 animals each and the groups were divided in control and treated group. The compound, suspended in 0.5% (w/v) Methocel, was orally administered daily for at least five weeks. The control group received only Methocel.
SBP and HR were measured weekly, 6 and 24 hours after the treatment.
After five weeks of treatment, when the hypertension was fully developed in the control group ([…]) a one-week wash-out was conducted in order to verify whether SBP would remain low or restored to the basal values of the control group.

[2] = target: T1, Na^+, K^+ -ATPase (Canis lupus familiaris, UniProt P50997); experiment: displacement of specific ^3 H-oubain binding from purified Na^+, K^+ -ATPase receptor
T1 construct: from tissue
From the text: (§1) To test the affinity for the receptor site of the Na^+, K^+ -ATPase and the agonist or inhibitory activity on the enzyme, the following tests were used:
a) displacement of the specific ^3 H-oubain binding from the Na^+, K^+ -ATPase receptor purified according to Jorghensen (Jorghensen P., BBA, 1974, 356, 36) and Erdamnn (Erdmann E. et al., Arzneim. Forsh, 1984, 34, 1314);

[3] = target: Na^+, K^+ -ATPase; type: biochemical; settings: purified Na^+, hydrolysis of ^32 P-ATP
From the text: as §1
b) inhibition of the activity of the purified Na^+, K^+ -ATPase measured as % of hydrolysis of ^32 P-ATP in the presence and in the absence of the tested compound (Doucet A. et al., Am. J. Physiol., 1986, 251, F851).

SMILES	SBP [1]	HR [1]	IC50 ([2]; purified Na^+, K^+ -ATPase receptor, read-out: Binding ^3 H-oubain displacement -log IC50 (converted)) [nM]	Inhibitory activity -log IC50 [3]	IC50 [2] [nM]
CC[C@H](c1ccoc1)[C@@]1(C)CC[C@H]2[C@@H](CC[C@@H]3C[C@@H](O)CC[C@@]32C)[C@@H]1O [Comp. I-a, 17β-(3-furyl)-14,15-seco-5βandrostan-3β,14β-diol]	155+/-4.3 mm Hg	370+/-10.5 beats/min.			
CC[C@H](c1ccoc1)[C@@]1(C)CC[C@H]2[C@@H](CC[C@@H]3C[C@@H](O)CC[C@@]32C)C1=O [Comp. I-c, 17β-(3-furyl)-14-oxo-14,15-seco-5β-androstan-3β-ol]			6310	4.3	
CC[C@H](C1=CC(=O)OC1)[C@@]1(C)CC[C@H]2[C@@H](CC[C@@H]3C[C@@H](O)CC[C@@]32C)C1=O [Comp. I-d, 3β-hydroxy-14-oxo-14,15-seco-5β-card-20(22)-enolide]	156+/-4.6 mm Hg	383+/-11.4 beats/min.		5.6	200
CC[C@H](C1=CC(=O)OC1)[C@@]1(C)CC[C@H]2[C@@H](CC[C@@H]3C[C@@H](O)CC[C@@]32C)[C@@H]1O [Comp. I-e, 3β,14β-dihydroxy-14,15-seco-5β-card-20(22)-enolide]				5.1	126
C[C@]12CC[C@H](O)C[C@H]1CC[C@H]1[C@H](O)[C@@](C)([C@H](CC#N)C3=CC(=O)OC3)CC[C@@H]12 [Comp. I-h, 3β,14β-dihydroxy-14,15-seco-5β-card-20(22)-enolide-15-nitrile]	160+/-7.8 mm Hg	377+/-10.5 beats/min.			
CN(C)CCO/N=C/C[C@H](C1=CC(=O)OC1)[C@@]1(C)CC[C@H]2[C@@H](CC[C@@H]3C[C@@H](O)CC[C@@]32C)C1=O [Comp. I-i, 3β-hydroxy-14-oxo-14,15-seco-5β-card-20(22)-enolide-15-(2-dimethylaminoethoxy-(E)-imino)]				4.0	2510
CN(C)CCO/N=C\C[C@H](C1=CC(=O)OC1)[C@@]1(C)CC[C@H]2[C@@H](CC[C@@H]3C[C@@H](O)CC[C@@]32C)C1=O [Comp. I-l, 3β-hydroxy-14-oxo-14,15-seco-5β-card-20(22)-enolide-15(2-dimethylaminoethoxy-(Z)-imino)]				4.2	3980
C[C@]12CC[C@H](O)C[C@H]1CC[C@H]1C(=O)[C@@](C)([C@H](C/C=N/NC(=N)N)C3=CC(=O)OC3)CC[C@@H]12 [Comp. I-m, 3β-hydroxy-14-oxo-14,15-seco-5β-card-20(22)enolide-15-(E)-(guanidinoimino)]				4.1	3160
